Earlier results as cited in patent US20240226212A1, “GENOMIC SEQUENCES FOR YEAST PROBIOTICS” (Worcester Polytechnic Institute, priority 2023, published 2024).

Test system: C. albicans

OCCc1c[nH]c2ccccc12 [tryptophol]
filamentation of C. albicans: shown to inhibit filamentation
